For series [1] the following is noted: DSC. For orientation: DSC measures the heat that a sample takes up or gives off during a temperature scan.
Series [2] in a line: Molar enthalpy of transition or fusion. Particulars: Crystal 2; DSC.

± gives the expanded uncertainty stated by the source.

In the case of `CC[N+](C)(C)C.O=S(=O)([N-]S(=O)(=O)C(F)(F)F)C(F)(F)F` [ethyltrimethylammonium bis(trifluoromethylsulfonyl)imide], the Triple point temperature in series [1] (Crystal) amounted to 383 ± 4 K.

For the compound `CCCCCCCCCCCCCCCC[N+](C)(C)C.O=S(=O)([N-]S(=O)(=O)C(F)(F)F)C(F)(F)F`, the “Molar enthalpy of transition or fusion” value in series [2] stood at 7.03 ± 0.717 kcal/mol. For the same compound, the Triple point temperature in series [1] (Crystal 1) was 335 ± 4 K; in series [1] (Crystal 2) it was 319 ± 4 K.

Regarding `CCCC[N+](CCCC)(CCCC)CCCC.O=S(=O)([N-]S(=O)(=O)C(F)(F)F)C(F)(F)F` [tetrabutylammonium bis[(trifluoromethyl)sulfonyl]imide], the Triple point temperature in series [1] (Crystal) is given as 365 ± 4 K.

As for `O=S(=O)([N-]S(=O)(=O)C(F)(F)F)C(F)(F)F.[Li+]` [lithium bis((trifluoromethyl)sulfonyl)amide], in series [2], the “Molar enthalpy of transition or fusion” value turned out to be 2.84 ± 0.287 kcal/mol. The Triple point temperature in series [1] (Crystal 1) is recorded as 508 ± 4 K; in series [1] (Crystal 2), 422 ± 4 K.

The record behind these values is the NIST ThermoML archive (doi:10.1021/acs.jced.5b00807).
